We go through eight compounds from BindingDB's records for doi:10.1016/j.bmcl.2009.09.018 (Sun Yat-Sen University, 2009).

The target in this assay is T1, Polyphenol oxidase 2 (Agaricus bisporus, UniProt O42713).
T1 sequence (O42713 whole entry): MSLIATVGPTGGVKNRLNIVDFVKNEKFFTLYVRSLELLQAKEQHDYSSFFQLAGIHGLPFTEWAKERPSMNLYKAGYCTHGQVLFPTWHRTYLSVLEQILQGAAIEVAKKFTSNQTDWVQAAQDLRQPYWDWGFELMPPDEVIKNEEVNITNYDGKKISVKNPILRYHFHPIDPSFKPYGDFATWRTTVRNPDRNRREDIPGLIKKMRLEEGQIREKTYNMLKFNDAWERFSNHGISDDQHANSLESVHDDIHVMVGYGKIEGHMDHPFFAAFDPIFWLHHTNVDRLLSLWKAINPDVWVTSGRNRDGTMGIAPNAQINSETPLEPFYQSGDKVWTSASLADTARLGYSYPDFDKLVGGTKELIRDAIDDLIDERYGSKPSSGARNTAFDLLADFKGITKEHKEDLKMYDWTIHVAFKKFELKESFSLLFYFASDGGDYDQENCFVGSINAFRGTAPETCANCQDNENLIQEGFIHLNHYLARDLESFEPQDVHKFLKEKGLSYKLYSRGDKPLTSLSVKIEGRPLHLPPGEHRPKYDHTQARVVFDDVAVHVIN
Description: Inhibition of mushroom tyrosinase.

Structures are written as SMILES.

In the case of `CC(=O)OC[C@H]1O[C@@H](Oc2ccc(CN=O)cc2)[C@H](OC(C)=O)[C@@H](OC(C)=O)[C@@H]1OC(C)=O`, the half-maximal inhibitory concentration (IC50) was above 200 µM.

Compound `O=NCc1ccc(O[C@@H]2O[C@H](CO)[C@@H](O)[C@H](O)[C@H]2O)cc1` gave an IC50 above 200 µM. The result for `O=NCc1ccc(O[C@@H]2O[C@H](CO)[C@@H](O)[C@@H](O)[C@H]2O)cc1` [4-((2S,3R,4R,5S,6R)-3,4,5-trihydroxy-6-(hydroxymethyl)tetrahydro-2H-pyran-2-yloxy)benzaldehyde oxime] reads above 200 µM; that for `CC(=O)OC[C@H]1O[C@@H](Oc2ccc(CN=O)cc2)[C@H](OC(C)=O)[C@H](OC(C)=O)[C@@H]1OC(C)=O` [(2R,3R,4R,5R,6S)-2-(acetoxymethyl)-6-(4-((hydroxyimino)methyl)phenoxy)tetrahydro-2H-pyran-3,4,5-triyl triacetate], above 200 µM; that for `O=NCc1ccc(O[C@@H]2O[C@H](COC(=O)c3ccccc3)[C@@H](OC(=O)c3ccccc3)[C@@H](OC(=O)c3ccccc3)[C@H]2OC(=O)c2ccccc2)cc1` [(2R,3R,4R,5R,6S)-2-(benzoyloxymethyl)-6-(4-((hydroxyimino)methyl)phenoxy)tetrahydro-2H-pyran-3,4,5-triyl tribenzoate], above 200 µM.

Consider `CC(=O)OC[C@H]1O[C@@H](Oc2ccc(CN=O)cc2)[C@H](OC(C)=O)[C@@H](OC(C)=O)[C@H]1OC(C)=O` [(2R,3S,4S,5R,6S)-2-(acetoxymethyl)-6-(4-((hydroxyimino)methyl)phenoxy)tetrahydro-2H-pyran-3,4,5-triyl triacetate], for which the concentration for half-maximal inhibition (IC50) is above 200 µM. `CC(=O)OC[C@H]1O[C@@H](O[C@H]2[C@H](OC(C)=O)[C@@H](OC(C)=O)[C@H](Oc3ccc(CN=O)cc3)O[C@@H]2COC(C)=O)[C@H](OC(C)=O)[C@@H](OC(C)=O)[C@H]1OC(C)=O` [(2R,3S,4S,5R,6S)-2-(acetoxymethyl)-6-((2R,3R,4S,5R,6S)-4,5-diacetoxy-2-(acetoxymethyl)-6-(4-((hydroxyimino)methyl)phenoxy)tetrahydro-2H-pyran-3-yloxy)tetrahydro-2H-pyran-3,4,5-triyl triacetate] came in with a half-maximal inhibitory concentration (IC50) above 200 µM. The result for `O=NCc1ccc(O[C@@H]2OC[C@@H](OC(=O)c3ccccc3)[C@H](OC(=O)c3ccccc3)[C@H]2OC(=O)c2ccccc2)cc1` [(2S,3R,4S,5R)-2-(4-((hydroxyimino)methyl)phenoxy)tetrahydro-2H-pyran-3,4,5-triyl tribenzoate] reads above 200 µM.
